Assay results from ChEMBL document CHEMBL1201862, “PubChem BioAssay data set” (2004).
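Compound exposure: 48 hours, 5 concentrations, 96-well plates. Abbreviation: GI50, concentration required for 50% inhibition of growth.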 Activity calls are given as the source filed them. No stated cut-off is given here; in the data, active = GI50 up to about 1.1 µM and inactive = higher. Positions of bridges follow the written chain, without caps; N, C: chain ends. Residues, ends and D or L forms follow the SMILES beside them.

Columns and labels:
Assay in all cases: DTP human tumour cell line panel, 48 h
[1] = system: A498
[2] = system: A549
[3] = system: CCRF-CEM
[4] = system: HCC 2998
[5] = system: HOP-62
[6] = system: HT-29
[7] = system: IGROV-1
[8] = system: M14
[9] = system: MCF7
[10] = system: NCI-H23
[11] = system: NCI-H522
[12] = system: OVCAR-5
[13] = system: RPMI-8226
[14] = system: SF-295
[15] = system: SN12C
[16] = system: TK-10
[17] = system: U-251
[18] = system: DU-145
[19] = system: SK-OV-3
[20] = system: UACC-62

Compound | GI50 [1] | GI50 [2] | GI50 [3] | GI50 [4] | GI50 [5] | GI50 [6] | GI50 [7] | GI50 [8] | GI50 [9] | GI50 [10] | GI50 [11] | GI50 [12] | GI50 [13] | GI50 [14] | GI50 [15] | GI50 [16] | GI50 [17] | GI50 [18] | GI50 [19] | GI50 [20]
O=C1CC(C(O)C(O)C(O)CO)CC(=O)N1 (stereo not drawn) | > 100 µM (inactive) | > 100 µM (inactive) | > 100 µM (inactive) | > 100 µM (inactive) | > 100 µM (inactive) | > 100 µM (inactive) | > 100 µM (inactive) | > 100 µM (inactive) | > 100 µM (inactive) | > 100 µM (inactive) | > 100 µM (inactive) | > 100 µM (inactive) | > 100 µM (inactive) | > 100 µM (inactive) | > 100 µM (inactive) | > 100 µM (inactive) | > 100 µM (inactive) | – | – | –
c1ccc(Cc2cc(-c3ccccc3)[nH]n2)cc1 | – | 11.1 µM (inactive) | 10.9 µM (inactive) | – | 24.8 µM (inactive) | 11.2 µM (inactive) | 18.1 µM (inactive) | 28.5 µM (inactive) | 19.8 µM (inactive) | – | 16.7 µM (inactive) | 20.6 µM (inactive) | – | 0.568 µM (active) | 13.5 µM (inactive) | 17.4 µM (inactive) | 13.2 µM (inactive) | 11.5 µM (inactive) | 32.4 µM (inactive) | 14.4 µM (inactive)
Cc1ccc(SCC(CF)OC(C)n2cnc3c(Cl)nc(N)nc32)cc1 (stereo not drawn) | – | 44.7 µM (inactive) | 81.1 µM (inactive) | > 100 µM (inactive) | > 100 µM (inactive) | > 100 µM (inactive) | > 100 µM (inactive) | > 100 µM (inactive) | 27.2 µM (inactive) | 57.4 µM (inactive) | 18.7 µM (inactive) | > 100 µM (inactive) | > 100 µM (inactive) | 67.9 µM (inactive) | 43.3 µM (inactive) | > 100 µM (inactive) | > 100 µM (inactive) | > 100 µM (inactive) | 37.2 µM (inactive) | > 100 µM (inactive)
COc1ccc(-c2nc3ncccn3c2-c2ccc([S+](C)[O-])cc2)cc1 (stereo not drawn) | – | > 100 µM (inactive) | > 100 µM (inactive) | – | > 100 µM (inactive) | > 100 µM (inactive) | > 100 µM (inactive) | > 100 µM (inactive) | 28.3 µM (inactive) | > 100 µM (inactive) | – | > 100 µM (inactive) | > 100 µM (inactive) | > 100 µM (inactive) | > 100 µM (inactive) | – | > 100 µM (inactive) | > 100 µM (inactive) | 45.3 µM (inactive) | 54.7 µM (inactive)
Cc1ccc(/N=C2\C(=N/c3ccc(C)cc3)N(c3ccc(C)cc3)C(=S)N2C(=O)c2ccccc2)cc1 | – | > 100 µM (inactive) | – | > 100 µM (inactive) | > 100 µM (inactive) | > 100 µM (inactive) | > 100 µM (inactive) | > 100 µM (inactive) | > 100 µM (inactive) | > 100 µM (inactive) | 43.8 µM (inactive) | > 100 µM (inactive) | > 100 µM (inactive) | 18.3 µM (inactive) | > 100 µM (inactive) | > 100 µM (inactive) | > 100 µM (inactive) | > 100 µM (inactive) | > 100 µM (inactive) | > 100 µM (inactive)
CN(C)CCCN1c2ccc([N+](=O)[O-])cc2CCc2cc([N+](=O)[O-])ccc21 | – | 17.9 µM (inactive) | – | 9.84 µM (inactive) | 16 µM (inactive) | 14.8 µM (inactive) | 14.9 µM (inactive) | 16.7 µM (inactive) | – | – | 16.9 µM (inactive) | 13.7 µM (inactive) | 20.4 µM (inactive) | 15.6 µM (inactive) | 15.8 µM (inactive) | 11.3 µM (inactive) | 16.2 µM (inactive) | 16.6 µM (inactive) | 17.2 µM (inactive) | 13.5 µM (inactive)
CCC(C)C1NC(=O)C(CC(C)C)NC(=O)C(C(C)C)NC(=O)C2CSSCC(NC1=O)C(=O)N2 (stereo not drawn) (cyclo(CCVLI); disulfide 1-2; configuration not given here) | – | 0.177 µM (active) | 0.0228 µM (active) | 0.082 µM (active) | 0.186 µM (active) | 0.177 µM (active) | 0.165 µM (active) | 0.277 µM (active) | 0.0318 µM (active) | 0.138 µM (active) | 0.142 µM (active) | 0.16 µM (active) | 0.0262 µM (active) | 0.182 µM (active) | 0.192 µM (active) | 0.687 µM (active) | 0.0385 µM (active) | 0.156 µM (active) | – | 0.0904 µM (active)
Cc1cc(C)c2ccc(N3CCNCC3)nc2n1 | – | > 100 µM (inactive) | > 100 µM (inactive) | > 100 µM (inactive) | > 100 µM (inactive) | 57.7 µM (inactive) | > 100 µM (inactive) | > 100 µM (inactive) | > 100 µM (inactive) | > 100 µM (inactive) | > 100 µM (inactive) | > 100 µM (inactive) | > 100 µM (inactive) | > 100 µM (inactive) | > 100 µM (inactive) | > 100 µM (inactive) | > 100 µM (inactive) | > 100 µM (inactive) | > 100 µM (inactive) | > 100 µM (inactive)
O=C(O)c1ccc([N+](=O)[O-])c(P(=O)(O)O)c1 | > 100 µM (inactive) | > 100 µM (inactive) | – | – | > 100 µM (inactive) | > 100 µM (inactive) | > 100 µM (inactive) | > 100 µM (inactive) | > 100 µM (inactive) | > 100 µM (inactive) | – | > 100 µM (inactive) | > 100 µM (inactive) | > 100 µM (inactive) | > 100 µM (inactive) | > 100 µM (inactive) | > 100 µM (inactive) | > 100 µM (inactive) | > 100 µM (inactive) | > 100 µM (inactive)
O=c1/c(=C/c2ccccn2)sc2nc3cc4c(cc3n12)OCCO4 | > 100 µM (inactive) | > 100 µM (inactive) | > 100 µM (inactive) | > 100 µM (inactive) | > 100 µM (inactive) | > 100 µM (inactive) | > 100 µM (inactive) | > 100 µM (inactive) | – | > 100 µM (inactive) | > 100 µM (inactive) | > 100 µM (inactive) | > 100 µM (inactive) | > 100 µM (inactive) | > 100 µM (inactive) | > 100 µM (inactive) | > 100 µM (inactive) | > 100 µM (inactive) | > 100 µM (inactive) | > 100 µM (inactive)
COc1cc2c(cc1OC)-c1c(oc3cc(OC4OC(CO)C(O)C(O)C4O)c(OC)cc3c1=O)C(O)O2 (stereo not drawn) | > 100 µM (inactive) | > 100 µM (inactive) | > 100 µM (inactive) | > 100 µM (inactive) | > 100 µM (inactive) | > 100 µM (inactive) | > 100 µM (inactive) | > 100 µM (inactive) | – | > 100 µM (inactive) | > 100 µM (inactive) | > 100 µM (inactive) | > 100 µM (inactive) | > 100 µM (inactive) | > 100 µM (inactive) | > 100 µM (inactive) | > 100 µM (inactive) | > 100 µM (inactive) | > 100 µM (inactive) | > 100 µM (inactive)
COC(=O)[C@H](C)NC(=O)[C@H](NS(=O)(=O)c1nc2ccccc2s1)c1ccccc1 | – | – | 34.4 µM (inactive) | 20.1 µM (inactive) | 29.4 µM (inactive) | 39.4 µM (inactive) | 49.3 µM (inactive) | 10.4 µM (inactive) | 34 µM (inactive) | 36.3 µM (inactive) | – | – | 31 µM (inactive) | 39.1 µM (inactive) | – | 58.1 µM (inactive) | 20.5 µM (inactive) | 15.2 µM (inactive) | 33.2 µM (inactive) | 14.9 µM (inactive)
O=c1cccccc1NCCCCNc1cccccc1=O | > 100 µM (inactive) | 59.2 µM (inactive) | > 100 µM (inactive) | 85.3 µM (inactive) | > 100 µM (inactive) | > 100 µM (inactive) | > 100 µM (inactive) | 55.7 µM (inactive) | – | 67.8 µM (inactive) | 83.8 µM (inactive) | > 100 µM (inactive) | 43.4 µM (inactive) | > 100 µM (inactive) | > 100 µM (inactive) | > 100 µM (inactive) | > 100 µM (inactive) | – | > 100 µM (inactive) | 72.6 µM (inactive)
N=C(N)NS(=O)(=O)c1ccc(NCc2c3ccccc3[n+]([O-])c3ccccc23)cc1 | 13.6 µM (inactive) | 17.6 µM (inactive) | 5.64 µM (inactive) | 13.4 µM (inactive) | 15.9 µM (inactive) | 41.5 µM (inactive) | 19.8 µM (inactive) | 46.6 µM (inactive) | – | 21.8 µM (inactive) | 29.9 µM (inactive) | > 100 µM (inactive) | 12.4 µM (inactive) | 18.7 µM (inactive) | 15 µM (inactive) | > 100 µM (inactive) | 16.6 µM (inactive) | – | > 100 µM (inactive) | 22.5 µM (inactive)
Cc1ccc(-c2c(C#N)c(-c3ccc(N(C)C)cc3)c(C#N)c(=O)n2NS(=O)(=O)c2ccccc2)cc1 | 51.4 µM (inactive) | 36.5 µM (inactive) | 29.5 µM (inactive) | 18.3 µM (inactive) | 46.2 µM (inactive) | 38.5 µM (inactive) | 63.2 µM (inactive) | 25 µM (inactive) | 26.1 µM (inactive) | – | 42.3 µM (inactive) | > 100 µM (inactive) | 8.67 µM (inactive) | 23.1 µM (inactive) | 55.7 µM (inactive) | 92.3 µM (inactive) | 47.9 µM (inactive) | – | 62.1 µM (inactive) | 30.8 µM (inactive)
